Test results taken from patent publication US8513232B2, “Substituted spirocyclic piperidine derivatives as histamine-3 (H3) receptor ligands” (Cephalon, Inc., priority 2008, dated 2013).
Read-outs that look alike come from different tables or passages of the source.

Columns and labels:
human H3 receptor = target: T1, human H3 receptor (Homo sapiens, UniProt Q9Y5N1); experiment: Human H3 radioligand binding ([3H]-N-alpha-methylhistamine, SPA)
T1 construct: expressed in transfected cells
In short: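 SPA competition binding on membranes from CHO cells stably expressing human H3 receptor (10 μg protein/well) with ~1 nM [3H]-N-alpha-methylhistamine and compound at 0.01 nM-30 μM. Incubation 4 h at room temperature in 50 mM Tris-HCl pH 7.4, 5 mM MgCl2, 0.1% BSA; non-specific binding defined with 10 μM clobenpropit.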

[1] = target: T2, rat histamine H3 receptor (Rattus norvegicus, UniProt Q9QYN8); experiment: Rat H3 radioligand binding ([3H]-N-alpha-methylhistamine, SPA)
T2 construct: encoding the entire 445-amino-acid rat histamine H3 receptor; expressed in transfected cells; membrane preparation
T2 sequence (Q9QYN8 whole entry): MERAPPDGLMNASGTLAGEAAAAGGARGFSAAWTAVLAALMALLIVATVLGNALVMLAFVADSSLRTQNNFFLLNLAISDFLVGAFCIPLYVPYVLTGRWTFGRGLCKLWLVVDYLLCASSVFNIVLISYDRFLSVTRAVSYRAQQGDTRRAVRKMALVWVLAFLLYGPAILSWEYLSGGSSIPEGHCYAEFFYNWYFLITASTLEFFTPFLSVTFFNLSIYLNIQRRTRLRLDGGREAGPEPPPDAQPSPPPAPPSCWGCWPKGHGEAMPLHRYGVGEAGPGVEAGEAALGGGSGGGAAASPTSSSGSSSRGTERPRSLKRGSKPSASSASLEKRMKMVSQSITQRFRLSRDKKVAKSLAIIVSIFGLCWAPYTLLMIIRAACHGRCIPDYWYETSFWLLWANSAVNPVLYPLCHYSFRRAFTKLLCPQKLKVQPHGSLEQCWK
In short: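 Membranes from CHO-A3 cells stably expressing full-length rat H3 receptor (10 μg protein/well) incubated 4 h at room temperature, protected from light, with ~1 nM [3H]-N-alpha-methylhistamine and compound (0.01 nM-30 μM) in 50 mM Tris HCl pH 7.4, 5 mM MgCl2, 0.1% BSA. Binding read by SPA; 10 μM clobenpropit defined non-specific binding.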

[2] = human H3 binding, Table D, read-out: Human H3 Ki
[3] = rat H3 binding, Table D, read-out: Rat H3 Ki
[4] = Table C, human H3 binding, read-out: Human H3 Ki
[5] = Table C, rat H3 binding, read-out: Rat H3 Ki
[6] = Human H3 binding, Table B, Examples 136-362, read-out: hum H3 binding Ki
[7] = Rat H3 binding, Table B, Examples 136-362, read-out: rat H3 binding Ki
[8] = Table A, human H3 binding, read-out: Human Ki
[9] = Table A, rat H3 binding, read-out: Rat Ki

T1 sequence (Q9Y5N1 whole entry): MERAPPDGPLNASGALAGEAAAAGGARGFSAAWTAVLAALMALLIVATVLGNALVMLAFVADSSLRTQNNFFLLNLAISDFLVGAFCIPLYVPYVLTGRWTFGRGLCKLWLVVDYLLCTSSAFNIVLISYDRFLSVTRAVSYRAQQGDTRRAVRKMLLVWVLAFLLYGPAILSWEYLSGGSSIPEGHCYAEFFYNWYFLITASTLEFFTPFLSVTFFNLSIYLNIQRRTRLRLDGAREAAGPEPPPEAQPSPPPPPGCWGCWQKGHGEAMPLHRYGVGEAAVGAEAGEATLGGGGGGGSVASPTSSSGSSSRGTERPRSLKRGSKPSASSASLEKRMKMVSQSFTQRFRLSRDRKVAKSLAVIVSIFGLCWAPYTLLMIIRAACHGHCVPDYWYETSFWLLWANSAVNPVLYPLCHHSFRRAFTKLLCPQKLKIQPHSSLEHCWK

SMILES: O=C(NC[C@H]1CCCO1)c1ccc(-c2ccc3c(c2)CCC2(CCN(C4CCC4)CC2)O3)cc1Cl [Example 572]
- melting point: 62 to 64 °C
- Ki (human H3 receptor; [2]): < 0.2 µM
- Ki [1, 3]: < 0.2 µM

SMILES: Cc1cccc(N2CCN(c3ccc4c(c3)CCC3(CCN(C5CCC5)CC3)O4)CC2)n1 [Example 366]
- melting point: 159 to 161 °C
- Ki (human H3 receptor; [4]): < 0.2 µM
- Ki [1, 5]: < 0.2 µM

SMILES: Cn1cc(C(=O)Nc2ccc3c(c2)COC2(CCN(C4CCC4)CC2)O3)cn1 [Example 227]
- melting point: 227 to 228 °C
- Ki (human H3 receptor; [6]): < 0.2 µM
- Ki [1, 7]: 0.2 to 1 µM

SMILES: c1cc2c(cc1OCC1CCNCC1)CCC1(CCN(C3CCC3)CC1)O2 [Example 592]
- melting point: 292 to 294 °C
- Ki (human H3 receptor; [2]): < 0.2 µM
- Ki [1, 3]: < 0.2 µM

SMILES: c1cc2c(cc1N1CCC(OCC3CC3)CC1)CCC1(CCN(C3CCC3)CC1)O2 [Example 424]
- melting point: 280 to 283 °C
- Ki (human H3 receptor; [4]): < 0.2 µM
- Ki [1, 5]: < 0.2 µM

SMILES: c1cc2c(cc1O[C@H]1CCOC1)CCC1(CCN(C3CCC3)CC1)O2 [Example 450]
- melting point: 259 to 261 °C
- Ki (human H3 receptor; read-out: Human H3 Ki): < 0.2 µM
- Ki ([1]; read-out: Rat H3 kI): < 0.2 µM

SMILES: CC(=O)N(Cc1cccnc1)c1ccc2c(c1)COC1(CCN(C3CCC3)CC1)O2 [Example 320]
- melting point: 57 to 59 °C
- Ki (human H3 receptor; [6]): < 0.2 µM
- Ki [1, 7]: < 0.2 µM

SMILES: CNC(=O)c1ccc(-c2ccc3c(c2)COC2(CCN(C4CCC4)CC2)O3)c(OC)c1 [Example 682]
- melting point: 87 to 90 °C
- Ki (human H3 receptor; [2]): < 0.2 µM
- Ki [1, 3]: < 0.2 µM

SMILES: COCCNC(=O)c1ccc(-c2ccc3c(c2)COC2(CCN(C4CCC4)CC2)O3)cc1C [Example 255]
- melting point: 124.6 to 126.4 °C
- Ki (human H3 receptor; [6]): < 0.2 µM
- Ki [1, 7]: < 0.2 µM

SMILES: Cn1cc(-c2ccc3c(c2)COC2(CCN(C4CCC4)CC2)O3)ccc1=O [Example 659]
- melting point: 170 to 173 °C
- Ki (human H3 receptor; [2]): < 0.2 µM
- Ki [1, 3]: < 0.2 µM

SMILES: CNC(=O)CCc1ccc2c(c1)COC1(CCN(C3CCC3)CC1)O2 [Example 653]
- melting point: 86 to 88 °C
- Ki (human H3 receptor; [2]): < 0.2 µM
- Ki [1, 3]: < 0.2 µM

SMILES: OCc1ccc(-c2ccc3c(c2)COC2(CCN(C4CCC4)CC2)O3)s1 [Example 641]
- melting point: 168 to 169 °C
- Ki (human H3 receptor; [2]): < 0.2 µM
- Ki [1, 3]: < 0.2 µM

SMILES: CN(C)C(=O)N1CCN(c2ccc3c(c2)CCC2(CCN(C4CCC4)CC2)O3)CC1 [Example 392]
- melting point: 272 to 274 °C
- Ki (human H3 receptor; [4]): < 0.2 µM
- Ki [1, 5]: < 0.2 µM

SMILES: Cc1nc(-c2ccc3c(c2)COC2(CCN(C4CCC4)CC2)O3)cs1 [Example 74]
- melting point: 151 to 153 °C
- Ki (human H3 receptor; [8]): < 0.2 µM
- Ki [1, 9]: < 0.2 µM

SMILES: c1cc2c(cc1C1CCNCC1)CCC1(CCN(C3CCC3)CC1)O2 [Example 452]
- melting point: 88 to 90 °C
- Ki (human H3 receptor; read-out: Human H3 Ki): < 0.2 µM
- Ki ([1]; read-out: Rat H3 kI): < 0.2 µM

SMILES: Cc1noc(C)c1C(=O)N1CCN(c2ccc3c(c2)COC2(CCN(C4CCC4)CC2)O3)C(=O)C1 [Example 738]
- melting point: 103 to 106 °C
- Ki (human H3 receptor; [2]): < 0.2 µM
- Ki [1, 3]: < 0.2 µM

SMILES: Cc1nn(C)c(C)c1-c1ccc2c(c1)COC1(CCN(C3CCC3)CC1)O2 [Example 199]
- melting point: 140 to 143 °C
- Ki (human H3 receptor; [6]): < 0.2 µM
- Ki [1, 7]: < 0.2 µM

SMILES: F[C@@H]1CCN(c2ccc3c(c2)CCC2(CCN(C4CCC4)CC2)O3)C1 [Example 414]
- melting point: 275 to 280 °C
- Ki (human H3 receptor; [4]): < 0.2 µM
- Ki [1, 5]: < 0.2 µM

SMILES: O=C(Nc1ccc2c(c1)COC1(CCN(C3CCC3)CC1)O2)c1ccncc1Cl [Example 221]
- melting point: 192 to 193 °C
- Ki (human H3 receptor; [6]): < 0.2 µM
- Ki [1, 7]: < 0.2 µM

SMILES: O=C(Nc1ccc2c(c1)COC1(CCN(C3CCC3)CC1)O2)c1cnco1 [Example 286]
- melting point: 175 to 177 °C
- Ki (human H3 receptor; [6]): < 0.2 µM
- Ki [1, 7]: < 0.2 µM

SMILES: CCOC(=O)c1ccc(-c2ccc3c(c2)COC2(CCN(C4CCC4)CC2)O3)cc1 [Example 28]
- melting point: 148 to 149 °C
- Ki (human H3 receptor; [8]): < 0.2 µM
- Ki [1, 9]: < 0.2 µM

SMILES: O=c1ccc(-c2ccc3c(c2)COC2(CCN(C4CCC4)CC2)O3)cn1Cc1ccccc1 [Example 553]
- melting point: 193 to 196 °C
- Ki (human H3 receptor; read-out: Human H3 Ki): < 0.2 µM
- Ki ([1]; read-out: Rat H3 kI): < 0.2 µM

SMILES: COCCNC(=O)c1ccc(-c2ccc3c(c2)CCC2(CCN(C4CCC4)CC2)O3)cc1C [Example 233]
- melting point: 59.8 to 60.9 °C
- Ki (human H3 receptor; [6]): < 0.2 µM
- Ki [1, 7]: < 0.2 µM

SMILES: CC(C)(C)OC(=O)N1CC[C@@H](Oc2ccc3c(c2)CCC2(CCN(C4CCC4)CC2)O3)C1 [Example 442]
- melting point: 280 to 283 °C
- Ki (human H3 receptor; [4]): < 0.2 µM
- Ki [1, 5]: < 0.2 µM
